Reference: a melting point compilation (Tetko et al.; mined from patent text by program, amines drawn as free bases though some values may be those of a salt)

Compound	melting point [°C]
COc1cc2c(cc1OC)-c1c(O)c(OC)cc3c1C(C2)CN(C)C3 (stereo not drawn)	196 to 210
O=C(c1ccccc1F)C1(O)CCNCC1	133 to 135
COc1ccc2c(c1)C(=O)C(Cc1cccc(N)c1)CC2 (stereo not drawn)	159 to 161
O=S(=O)(Cc1ccc(C(O)c2ccc(Cl)cc2)cc1)C(F)(F)F (stereo not drawn)	113 to 115
CCCC1(C(O)CCCN2CCC(N3Cc4ccccc4C3=O)CC2)c2ccccc2-c2ccccc21 (stereo not drawn)	75 to 78
CCOC(=O)Oc1ccc(/C=C(\C)c2ccc3c(c2)SC(C)(C)S3)cc1	93 to 94
CCCCNC(=O)NS(=O)(=O)c1c(C)nn(C)c1OC	135 to 142
Cc1cc(C)cc(N2CCN(C(=O)NCC(c3ccccc3)c3ccccc3)CC2)c1	174 to 175
COc1cc2c3c(c1OC)CN(C)CC3Cc1cc3c(cc1-2)OCO3 (stereo not drawn)	169 to 172
CCCCCCCCCCCCCCCCCCOc1ccc(NC(=O)c2ccc(O)cc2)cc1	170
O=C(NCC1CC(=O)N(Cc2ccccc2)C1)Nc1ccc(Cl)cc1 (stereo not drawn)	139 to 140
Cc1ccc(C)n1CCNC(=O)Nc1ccc(C(=O)O)cc1	248 to 250
C=C(C)Cc1c(C)c(NC=O)c(C)c(CC(=C)C)c1O	169 to 170
COc1ccc(/C=C/c2cc(/C=C/c3ccc4cc[nH]c4c3)n[nH]2)cc1OCc1ccccn1	110 to 117
O=[N+]([O-])c1ccccc1Cc1ncc[nH]1	155 to 157
CN(C(=O)c1ccccc1)c1cccc(-c2nc(=O)c3ccccc3s2)n1	234 to 235
O=C1CCC(N2Cc3c(OCc4cc(CN5CCOCC5)on4)cccc3C2=O)C(=O)N1 (stereo not drawn)	218 to 220
CC(C)(C)OC(=O)[C@@H]1CCCN1C(=O)Cl	89 to 92
CN(C)CCC(=O)Nc1cccc([N+](=O)[O-])c1	80 to 81
CC(C)(C)Nc1nccc(C#C[Si](C)(C)C)n1	71 to 73
COc1cc2ncnc(-c3cn(S(C)(=O)=O)c4ccccc34)c2cc1OC	> 220
COC(=O)CCn1cc(C)c(=O)[nH]c1=O	112 to 119
COc1ccc2oc(-c3nc4c(s3)NCCCC4C(C)=O)cc2c1 (stereo not drawn)	147 to 149
Nc1ccc(C2=NNC(c3ccccn3)=NN2)nc1	158 to 160
COc1cc2c(Nc3ccc(Cl)cc3F)ncnc2cc1OCCCn1ccc(=O)cc1	> 250

Compound	melting point [°C]
CC(C)C1(C)N=C(c2ccc(C(C)(C)O)cn2)NC1=O (stereo not drawn)	166 to 168
CC(=O)N1C[C@@H](P(c2ccc(C)cc2)c2ccc(C)cc2)[C@H](P(c2ccc(C)cc2)c2ccc(C)cc2)C1	164 to 167
O=Cc1cc2ccccc2[nH]1	134 to 137
CC(C)c1ccc2c(c1)c(Sc1ccccc1)c(CC(C)(C)C(=O)O)n2Cc1ccc(Cl)cc1	162 to 165
Cc1cccc(C(=C2CN(C(c3ccccc3)c3ccccc3)C2)S(C)(=O)=O)c1	180
O=c1oc2ccc(Cl)cc2c(O)c1CCCOc1ccccc1	162 to 163
COc1ccc2cc(-c3ncno3)ccc2n1	150 to 152
CNC(=O)N[C@H]1CC[C@H](CCN2CCN(c3ccc(OC)c(Cl)c3Cl)CC2)CC1	237 to 241
CCOC(=O)COc1ccc(NC(=O)OC(C)(C)C)cc1Cl	119 to 120
CCOC(=O)C1CCn2c(cc3ccccc32)C1 (stereo not drawn)	70 to 72
O=c1c(CCCc2ccccn2)cc2cccnc2n1-c1ccc2nsnc2c1	170
Brc1c(NC2=NCCN2)ccc2c1NCCN2	218 to 220
CCOC(=O)c1cnc(Cl)c([N+](=O)[O-])c1NC	70 to 72
Cc1cc(C(C)(C)C)c(O)c(S(N)(=O)=O)c1	114 to 116
CC1(c2ccc([N+](=O)[O-])cc2)OCCO1	69 to 71
CC(C)CC(=O)Nc1cc(-c2ccnc3c(C(=O)c4cccs4)cnn23)ccc1Cl	172 to 175
CCCCCCCCC(=O)N1C(=O)CCC1=O	59 to 60
CCCCC1(N2CCCC2)CCC(c2[nH]c3ccccc3c2CCc2ccncc2)CC1 (stereo not drawn)	165 to 175
CCOC(=O)c1nc2cc(N)ccn2n1	150 to 171
Nc1ccc2[nH]c(C(=O)N3CCC(Cc4ccccc4)CC3)cc2c1	175 to 180
CC(C)OC(=O)c1cc([N+](=O)[O-])c(O)c([N+](=O)[O-])c1	108 to 110
CCCc1nc(C=O)c(C(=O)OCC)n1Cc1ccc(-c2ccccc2C(=O)OC(C)(C)C)cc1	117 to 119
FC(F)(F)c1ccc(/C=C/c2nc(COc3ccc(CCCCn4ccnn4)cc3)co2)cc1	160 to 161
Fc1ccc(SC(c2cc(F)ccc2F)c2cc(Cl)ncc2Cl)cc1 (stereo not drawn)	95 to 97
CC(C)(C)c1cc(I)c(O)c(CNS(=O)(=O)O)c1	172 to 180

Compound	melting point [°C]
CN1Cc2c(-c3noc(CN)n3)ncn2-c2sccc2C1=O	181 to 183
c1ccc2c(c1)Cn1cnnc1CN2	232 to 237
CCCc1c(OC)n2c3c(=O)n(C)c(=O)n(C)c3nc2n(Cc2ccccc2)c1=O	199 to 201
CCCNc1c2c(nc3ccccc13)CCCC2=O	145
CCN1c2ncc(COc3ccc(C(=O)OC)cc3)cc2C(=O)N(C)c2ccc(Cl)nc21	196 to 197
CCOC(=O)c1c(C=O)c2c(Cl)cc(Cl)cc2n1C(=O)OC(C)(C)C	141
Cc1ccc2c(c1)CC(=O)N2c1c(F)cc(F)c(F)c1F	172 to 173
CCc1ccc(Nc2c(F)c(F)cc(F)c2F)c(CC(=O)OC(C)(C)C(=O)O)c1	104 to 108
Cc1cc2c(=O)n3cc(C(N)=O)ccc3nc2s1	350 to 354
O=C(O)CC1(C(=O)OCc2ccccc2)C(=O)N(Cc2ccc(Cl)c(Cl)c2)C(=O)c2cccn21 (stereo not drawn)	134 to 136
CCCC1CCC(C2CC3(C2)CC(C(F)(F)Oc2cc(F)c(F)c(F)c2)C3)CC1 (stereo not drawn)	43
CCCCCCCCCCOc1ccc([N+](=O)[O-])cc1OCCCCCCCCCC	60 to 61
CC(=O)NCCc1cn(S(=O)(=O)c2ccc(C)cc2)c2ccc(O)cc12	173 to 174
CCc1nc2c(N)nc3cc(CCC(=O)N(C)C)ccc3c2n1CC(C)(C)O	234 to 237
COC(=O)c1ccc2ncc(C(=O)c3ccc(N4C[C@H](CNC(C)=O)OC4=O)cc3)n2c1	231 to 233
CCN(CC)C(=O)CCc1nc(-c2ccccc2Cl)nc2ccccc12	90
CC(Cc1ccc(Oc2cc(Oc3ccccc3)nc(N3CCN(Cc4ccccc4)CC3)n2)cc1)(Oc1ccccc1)C(=O)O (stereo not drawn)	135 to 137
CC(=O)c1ccc(-c2ccc(F)cc2F)c(N)c1	93 to 95
C=CCOC(=O)C1=C(C)NC(C)=C(C(=O)OC(C)C)C1c1cccc([N+](=O)[O-])c1 (stereo not drawn)	96 to 97
C=CCNc1ccc(N)cc1[N+](=O)[O-]	80 to 83
Nc1ccc(S(N)(=O)=O)c2c1CCCC2	216 to 219
CCN(Cc1nc2cc(OC)c(OC)cc2c(-c2ccc(OC)c(OC)c2)c1C(C)=O)C(C)(C)C	156 to 157
CC(C)(C)c1ccc(N2C(=O)CCC2=O)c([N+](=O)[O-])c1	135 to 138
